Measured values reported in patent publication US20040102468A1 (Gruenenthal GmbH, priority 2001, published 2004).

Legend:
[1] = system: rat; details: rat model of rhythmic bladder contractions; cited from earlier work
[2] = system: female Sprague-Dawley rats with oxyhaemoglobin-induced bladder overactivity; experiment: Cystometry on conscious damaged rats (oxyhaemoglobin-induced bladder overactivity, urgency incontinence model); format: in vivo, rat; details: OxyHb 2.5 × 10^−4 M alone

| Molecule | effect on bladder function [1] | BC bladder capacity, after (a) ([2]; n=5) | BC bladder capacity, change (dif.) compared with the pre-value ([2]; n=5) | ICI intercontraction interval, after (a) ([2]; n=5) | ICI intercontraction interval, change (dif.) compared with the pre-value ([2]; n=5) | MP micturition pressure, after (a) ([2]; n=5) | MP micturition pressure, change (dif.) compared with the pre-value ([2]; n=5) | TP threshold pressure, after (a) ([2]; n=5) | TP threshold pressure, change (dif.) compared with the pre-value ([2]; n=5) | BC bladder capacity, before (b) ([2]; n=5, pre-value) | ICI intercontraction interval, before (b) ([2]; n=5, pre-value) | MP micturition pressure, before (b) ([2]; n=5, pre-value) | TP threshold pressure, before (b) ([2]; n=5, pre-value) |
| --- | --- | --- | --- | --- | --- | --- | --- | --- | --- | --- | --- | --- | --- |
| COc1cccc(C2(O)CCCCC2CN(C)C)c1 (stereo not shown) [tramadol] | positive effect on bladder function |  |  |  |  |  |  |  |  |  |  |  |  |
| oxyhaemoglobin [OxyHb] |  | a: 0.65 ± 0.06 ml | dif.: −29.3% | a: 3.33 ± 0.18 min | dif.: −32.9% | a: 97 ± 5 cm H2O | dif.: +64.4% | a: 9.84 ± 1.56 cm H2O | dif.: +12.8% | b: 0.92 ± 0.10 ml | b: 4.96 ± 0.33 min | b: 59 ± 8 cm H2O | b: 8.72 ± 1.31 cm H2O |
